Data as given in ChEMBL document CHEMBL1201862, “PubChem BioAssay data set” (2004).
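Growth conditions: 96-well plates. Treatment: test compound, 48 hours, 5 concentrations. Analysis: linear interpolation between bracketing concentrations; unreached endpoints set to highest concentration. At the GI50, growth is halved.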 The source made the active and inactive calls. Rule as the data show it: active = GI50 up to about 1.1 µM and inactive = higher.

Columns and labels:
Assay in all cases: growth of human tumour cells (NCI), 48 h
[1] = test system: HL-60
[2] = test system: A549
[3] = test system: T47D
[4] = test system: SK-MEL-2
[5] = test system: Malme-3M
[6] = test system: BT-549
[7] = test system: HOP-62
[8] = test system: SF-268
[9] = test system: IGROV-1
[10] = test system: SNB-19
[11] = test system: MDA-MB-435
[12] = test system: CAKI-1
[13] = test system: SR
[14] = test system: TK-10
[15] = test system: SK-MEL-5
[16] = test system: SN12C
[17] = test system: A498
[18] = test system: CCRF-CEM
[19] = test system: SK-MEL-28
[20] = test system: SNB-78

SMILES | GI50 [1] | GI50 [2] | GI50 [3] | GI50 [4] | GI50 [5] | GI50 [6] | GI50 [7] | GI50 [8] | GI50 [9] | GI50 [10] | GI50 [11] | GI50 [12] | GI50 [13] | GI50 [14] | GI50 [15] | GI50 [16] | GI50 [17] | GI50 [18] | GI50 [19] | GI50 [20]
C=CCn1c(N)c(C#N)c(C#N)c1-c1ccccc1 | > 100 µM (inactive) | > 100 µM (inactive) | > 100 µM (inactive) | 26.8 µM (inactive) | > 100 µM (inactive) | > 100 µM (inactive) | > 100 µM (inactive) | > 100 µM (inactive) | > 100 µM (inactive) | > 100 µM (inactive) | > 100 µM (inactive) | > 100 µM (inactive) | > 100 µM (inactive) | > 100 µM (inactive) | > 100 µM (inactive) | > 100 µM (inactive) | > 100 µM (inactive) | > 100 µM (inactive) | – | –
COC(=O)C1(Cc2ccc3c(c2)CCC3)Cc2ccccc2C1=O (stereo not drawn) | 3.12 µM (inactive) | 21.1 µM (inactive) | 19.3 µM (inactive) | 13.2 µM (inactive) | 17.5 µM (inactive) | 11.5 µM (inactive) | 14.2 µM (inactive) | 22.1 µM (inactive) | 14 µM (inactive) | 20.7 µM (inactive) | 2.97 µM (inactive) | 19.6 µM (inactive) | 6.47 µM (inactive) | 12.3 µM (inactive) | 4.3 µM (inactive) | 27.6 µM (inactive) | 18.4 µM (inactive) | 6.97 µM (inactive) | 7.14 µM (inactive) | –
S=c1sc2nc(Cl)nc(Cl)c2s1 | 0.442 µM (active) | 19 µM (inactive) | 7.06 µM (inactive) | 11.4 µM (inactive) | 8.83 µM (inactive) | 8.87 µM (inactive) | 19.9 µM (inactive) | 14.8 µM (inactive) | 13.8 µM (inactive) | 17.9 µM (inactive) | 7.94 µM (inactive) | 7.52 µM (inactive) | 1.04 µM (active) | 13.6 µM (inactive) | 8.73 µM (inactive) | 14.5 µM (inactive) | 18 µM (inactive) | 0.598 µM (active) | 16.1 µM (inactive) | –
COc1ccc2c(c1)C1(C=N2)CCN(C(C)=O)CC1 | > 100 µM (inactive) | > 100 µM (inactive) | – | > 100 µM (inactive) | > 100 µM (inactive) | – | > 100 µM (inactive) | 48 µM (inactive) | > 100 µM (inactive) | – | – | > 100 µM (inactive) | – | > 100 µM (inactive) | > 100 µM (inactive) | – | > 100 µM (inactive) | > 100 µM (inactive) | > 100 µM (inactive) | > 100 µM (inactive)
O=C1N/C(=N/N=C\C(O)C(O)C(O)C(O)CO)N/C1=C\c1ccc(Cl)cc1 (stereo not drawn) | 25.3 µM (inactive) | 27.2 µM (inactive) | 3.25 µM (inactive) | 7.06 µM (inactive) | 2.76 µM (inactive) | 5.52 µM (inactive) | 2.72 µM (inactive) | 3.61 µM (inactive) | 12.4 µM (inactive) | 2.73 µM (inactive) | 7.14 µM (inactive) | > 57.7 µM (inactive) | 4.04 µM (inactive) | 4.8 µM (inactive) | 17 µM (inactive) | 1.51 µM (inactive) | 11.5 µM (inactive) | 4.89 µM (inactive) | 8.55 µM (inactive) | –
CCOC(=O)c1cc2c3c(c(C(C)=O)c(O)c2[nH]1)N(C(C)=O)CC3 | 76.2 µM (inactive) | – | 46.7 µM (inactive) | > 100 µM (inactive) | 64.3 µM (inactive) | 52 µM (inactive) | > 100 µM (inactive) | 55.8 µM (inactive) | 31.8 µM (inactive) | > 100 µM (inactive) | 89.3 µM (inactive) | > 100 µM (inactive) | 50.6 µM (inactive) | 40.6 µM (inactive) | 52.7 µM (inactive) | > 100 µM (inactive) | 52.5 µM (inactive) | 46 µM (inactive) | 34.4 µM (inactive) | –
C=C1C(=O)O[C@@H]2C[C@@H](C)[C@@H]3C=CC(=O)[C@@]3(C)[C@@H](O)[C@H]12 [HELENALIN] | 0.525 µM (active) | 2.9 µM (inactive) | 2.95 µM (inactive) | 1.86 µM (inactive) | 1.69 µM (inactive) | 1.04 µM (active) | 5.89 µM (inactive) | 3.5 µM (inactive) | 2.2 µM (inactive) | 2.58 µM (inactive) | 1.58 µM (inactive) | 0.377 µM (active) | 0.594 µM (active) | 4.05 µM (inactive) | 1.3 µM (inactive) | 1.36 µM (inactive) | 1.86 µM (inactive) | 0.313 µM (active) | 1.76 µM (inactive) | –
O=C(/C=C1\Sc2ccccc2N=C1CC(=O)c1ccccc1)c1ccccc1 | 4.89 µM (inactive) | 5.33 µM (inactive) | 6.98 µM (inactive) | 17.3 µM (inactive) | 3.25 µM (inactive) | 8.13 µM (inactive) | 2.32 µM (inactive) | 6.4 µM (inactive) | 3.61 µM (inactive) | 69.7 µM (inactive) | 6.52 µM (inactive) | 4.12 µM (inactive) | 1.4 µM (inactive) | 5.73 µM (inactive) | 2.61 µM (inactive) | 3.88 µM (inactive) | 31.8 µM (inactive) | 2.36 µM (inactive) | 8.89 µM (inactive) | –
CCOC(=O)CC1(O)CCCCC1(Sc1ccc(C)cc1)Sc1ccc(C)cc1 (stereo not drawn) | 24.7 µM (inactive) | 33.8 µM (inactive) | 19.4 µM (inactive) | 20.5 µM (inactive) | 30.5 µM (inactive) | 83 µM (inactive) | 54.2 µM (inactive) | 31.7 µM (inactive) | – | 81.1 µM (inactive) | 33.9 µM (inactive) | 32.2 µM (inactive) | 31.3 µM (inactive) | > 100 µM (inactive) | 29.9 µM (inactive) | 39.4 µM (inactive) | > 100 µM (inactive) | 4.76 µM (inactive) | 39.2 µM (inactive) | –
CCOC(=O)CNC1C(NC(C)=O)C(OC)OC2COC(c3ccccc3)OC21 (stereo not drawn) | > 100 µM (inactive) | > 100 µM (inactive) | – | > 100 µM (inactive) | > 100 µM (inactive) | – | – | > 100 µM (inactive) | > 100 µM (inactive) | > 100 µM (inactive) | – | > 100 µM (inactive) | – | > 100 µM (inactive) | > 100 µM (inactive) | > 100 µM (inactive) | > 100 µM (inactive) | > 100 µM (inactive) | > 100 µM (inactive) | > 100 µM (inactive)
O=C(N/N=C/c1ccc2c(c1)OCO2)Nc1ccccc1Cl | 0.565 µM (active) | 3.33 µM (inactive) | 2.08 µM (inactive) | 0.556 µM (active) | 0.946 µM (active) | 1.85 µM (inactive) | 2.61 µM (inactive) | 3.76 µM (inactive) | 0.622 µM (active) | 3.7 µM (inactive) | 0.171 µM (active) | 4.18 µM (inactive) | 0.22 µM (active) | 2.15 µM (inactive) | 1.35 µM (inactive) | 0.847 µM (active) | 1.95 µM (inactive) | 1.13 µM (inactive) | 9.95 µM (inactive) | –
COc1ccc(N2C(=O)C(C)SC2c2cc3cc(Br)ccc3nc2Cl)cc1 (stereo not drawn) | 24.8 µM (inactive) | 12.4 µM (inactive) | 34.3 µM (inactive) | 19.7 µM (inactive) | 82.4 µM (inactive) | 24.9 µM (inactive) | 36.2 µM (inactive) | 38.3 µM (inactive) | 7.93 µM (inactive) | 25.6 µM (inactive) | 19.7 µM (inactive) | 35.1 µM (inactive) | 18.1 µM (inactive) | 38.6 µM (inactive) | 36.1 µM (inactive) | 35.2 µM (inactive) | 46.8 µM (inactive) | 26.6 µM (inactive) | 38.1 µM (inactive) | –
CCc1cc(Cc2ccc(C)c(NC(=O)C(=O)C3C(=O)NC(=O)NC3=O)c2CC)cc(C)c1NC(=O)C(=O)C1C(=O)NC(=O)NC1=O | > 100 µM (inactive) | > 100 µM (inactive) | – | > 100 µM (inactive) | > 100 µM (inactive) | – | > 100 µM (inactive) | > 100 µM (inactive) | > 100 µM (inactive) | > 100 µM (inactive) | – | 41.8 µM (inactive) | – | > 100 µM (inactive) | > 100 µM (inactive) | – | > 100 µM (inactive) | > 100 µM (inactive) | > 100 µM (inactive) | > 100 µM (inactive)
O=C(CC1(O)C(=O)Nc2c(Cl)cc(Cl)cc21)c1ccccc1 (stereo not drawn) | 37 µM (inactive) | > 100 µM (inactive) | – | > 100 µM (inactive) | > 100 µM (inactive) | – | – | 76 µM (inactive) | > 100 µM (inactive) | > 100 µM (inactive) | – | > 100 µM (inactive) | – | > 100 µM (inactive) | 60.3 µM (inactive) | > 100 µM (inactive) | > 100 µM (inactive) | – | > 100 µM (inactive) | 81.3 µM (inactive)
Cc1cc(O)c2c(c1)C(=O)C(c1c(C)cc3c(c1O)C(=O)C1OC1C3=O)=CC2=O (stereo not drawn) | 0.0175 µM (active) | 17.7 µM (inactive) | 1.98 µM (inactive) | 10.7 µM (inactive) | 1.73 µM (inactive) | 2.4 µM (inactive) | 13.1 µM (inactive) | 7.24 µM (inactive) | 9.1 µM (inactive) | 21.5 µM (inactive) | 2.54 µM (inactive) | 0.796 µM (active) | 0.327 µM (active) | 1.1 µM (active) | 6.34 µM (inactive) | 3.44 µM (inactive) | 6.4 µM (inactive) | 0.0667 µM (active) | 1.94 µM (inactive) | –
CN(Nc1cc(=O)[nH]c(=O)[nH]1)c1ccccc1 | > 100 µM (inactive) | > 100 µM (inactive) | > 100 µM (inactive) | > 100 µM (inactive) | > 100 µM (inactive) | > 100 µM (inactive) | > 100 µM (inactive) | > 100 µM (inactive) | > 100 µM (inactive) | > 100 µM (inactive) | > 100 µM (inactive) | > 100 µM (inactive) | > 100 µM (inactive) | > 100 µM (inactive) | > 100 µM (inactive) | > 100 µM (inactive) | > 100 µM (inactive) | > 100 µM (inactive) | > 100 µM (inactive) | –
